Source: article doi:10.1101/2022.01.05.475095v1 (biorxiv, 2022)

molecular target: T1, SARS-CoV-2 Mpro (Severe acute respiratory syndrome coronavirus 2, UniProt P0DTD1); assay: biochemical; details: read-out: Mpro % inhibition at 10 µM

Row | Structure (SMILES) | inhibition at 10 µM [%]
1 | CC1(C)OC2=C(C(=O)C(=O)c3ccccc32)C1n1cc(-c2ccccc2)nn1 (stereo not shown) [compound 159] | 35 ± 1
2 | CC1(C)OC2=C(C(=O)C(=O)c3ccccc32)C1n1cc(CNC2=CC(=O)c3ccccc3C2=O)nn1 (stereo not shown) [compound 189] | 25 ± 2
3 | CC1(C)OC2=C(C(=O)C(=O)c3ccccc32)C1n1cc(CNC2=C(Br)C(=O)c3ccccc3C2=O)nn1 (stereo not shown) [compound 191] | 55 ± 3
4 | Cc1ccc(S(=O)(=O)n2cc(CN(C3=CC(=O)c4ccccc4C3=O)c3ccc(Br)cc3)nn2)cc1 [compound 314] | 36 ± 2
5 | Cc1ccc(S(=O)(=O)n2cc(CNC3=CC(=O)c4ccccc4C3=O)nn2)cc1 [compound 319] | 5 ± 2
6 | Cc1ccc(S(=O)(=O)n2cc(CNC3=C(Cl)C(=O)c4ccccc4C3=O)nn2)cc1 [compound 320, 320] | 11 ± 6
7 | Cc1ccc(S(=O)(=O)n2cc(CNC3=C(Br)C(=O)c4ccccc4C3=O)nn2)cc1 [compound 321, 321] | 40 ± 8
8 | O=C1C(Sc2ccccc2)=C(Sc2ccccc2)C(=O)c2ccccc21 [compound 379] | 100
9 | O=C1C(Sc2ccc(Br)cc2)=C(Sc2ccc(Br)cc2)C(=O)c2ccccc21 [compound 380, 380] | 12 ± 3
10 | COc1ccc(SC2=C(Sc3ccc(OC)cc3)C(=O)c3ccccc3C2=O)cc1 [compound 382] | 100
11 | CC(=O)NC1=CC(=O)c2cccc(O)c2C1=O [compound 414, 414] | 29 ± 2
12 | CC(=O)NC1=CC(=O)c2c(cccc2[N+](=O)[O-])C1=O [compound 415, 415] | 100
13 | Cc1ccc(S(=O)(=O)c2cccc3c2C(=O)c2ccccc2C3=O)cc1 [compound 477, 477] | 5 ± 2
14 | CC1(C)OC2=C(CC1Br)C(=O)C(=NNc1ccccc1)c1ccccc12 (stereo not shown) [compound 666, 666] | 5 ± 5
15 | CC1(C)CC2=C(O1)c1ccccc1C(=NNc1ccccc1)C2=O [compound 673, 673] | 8 ± 3

molecular target: T1, SARS-CoV-2 Mpro; assay: fluorogenic quenched peptide cleavage assay; assay type: biochemical; details: not given

Row | Structure (SMILES) | IC50 [nM]
16 | O=C1C(Sc2ccccc2)=C(Sc2ccccc2)C(=O)c2ccccc21 [compound 379, 379] | 630 ± 40
17 | COc1ccc(SC2=C(Sc3ccc(OC)cc3)C(=O)c3ccccc3C2=O)cc1 [compound 382, 382] | 410 ± 20
18 | CC(=O)NC1=CC(=O)c2c(cccc2[N+](=O)[O-])C1=O [compound 415, 415] | 5000 ± 200

molecular target: T1, SARS-CoV-2 Mpro; assay: biochemical; details: read-out: % inhibition at 10 μM

Row | Structure (SMILES) | inhibition at 10 µM [%]
19 | CC(=O)c1ccc(N(Cc2cn(S(=O)(=O)c3ccc(C)cc3)nn2)C2=CC(=O)c3ccccc3C2=O)cc1 [compound 318, 318] | 45 ± 13
